Tests used:
QPCT (rhQPCT) = QPCT (rhQPCT) (Homo sapiens (Human), UniProt Q16769); assay: QPCT Enzymatic Activity Assay (coupled-enzyme fluorescent assay, H-Gln-AMC substrate); format: biochemical; conditions: rhQPCT 10-12 nM, 10 μM H-Gln-AMC; read-out: QPCT Inhibition IC50
How it was run: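 Coupled assay: recombinant human QPCT converts H-Gln-AMC (10 μM final) to pyroglutamyl-AMC, 60 min at 37 °C, stopped by boiling; PGPEP-1 then releases AMC.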

QPCTL [1] = target: T1, QPCTL (Homo sapiens (Human), UniProt Q9NXS2); assay: Inhibition of Cellular QPCTL Activity - FACS flow cytometry, CC2C6 anti-CD47 staining of Ramos cells; format: cell-based; conditions: Ramos human Burkitts Lymphoma cells, 72-96 hours, % CC2C6-positive cells
Experimental: Inhibition of Cellular QPCTL Activity—Fluorescence-Activated Cell Sorting (FACS) Flow Cytometry
The cells were incubated for 72-96 hours at 37° C. and 5% CO2. At the end of incubation period, cells were transferred to tubes and spun down at 1200 rpm for 5 minutes. […] After antibody staining, the cells were washed with FACS buffer then stained with SYTOX™ Blue dead cell stain at a dilution of 1:1000. Cells were analyzed on a BD FACS Melody and a positive staining gate on live cells was set using the 0.1% DMSO controls. […] Flow cytometry data were analyzed by FlowJo software and concentration-response-curves and IC50 values were generated using Collaborative Drug Discovery software.
Target sequence in this assay (Q9NXS2 whole entry): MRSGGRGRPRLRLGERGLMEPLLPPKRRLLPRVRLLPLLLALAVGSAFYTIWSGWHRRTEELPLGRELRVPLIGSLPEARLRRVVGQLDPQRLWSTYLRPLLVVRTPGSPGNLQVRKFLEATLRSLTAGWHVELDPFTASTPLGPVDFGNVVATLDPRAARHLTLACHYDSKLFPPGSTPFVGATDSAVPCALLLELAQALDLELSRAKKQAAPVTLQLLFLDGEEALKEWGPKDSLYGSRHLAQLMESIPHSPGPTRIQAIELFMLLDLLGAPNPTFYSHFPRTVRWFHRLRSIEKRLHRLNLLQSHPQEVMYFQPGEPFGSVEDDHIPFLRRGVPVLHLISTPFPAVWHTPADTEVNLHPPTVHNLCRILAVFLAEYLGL

QPCTL [2] = target: T1, QPCTL; assay: QPCTL Enzymatic Activity Assay (coupled-enzyme fluorescent assay, H-Gln-AMC substrate); format: biochemical; conditions: recombinant truncated human QPCTL 10-12 nM, 10 μM H-Gln-AMC; read-out: QPCTL Inhibition IC50
Target sequence in this assay (Q9NXS2 53-382): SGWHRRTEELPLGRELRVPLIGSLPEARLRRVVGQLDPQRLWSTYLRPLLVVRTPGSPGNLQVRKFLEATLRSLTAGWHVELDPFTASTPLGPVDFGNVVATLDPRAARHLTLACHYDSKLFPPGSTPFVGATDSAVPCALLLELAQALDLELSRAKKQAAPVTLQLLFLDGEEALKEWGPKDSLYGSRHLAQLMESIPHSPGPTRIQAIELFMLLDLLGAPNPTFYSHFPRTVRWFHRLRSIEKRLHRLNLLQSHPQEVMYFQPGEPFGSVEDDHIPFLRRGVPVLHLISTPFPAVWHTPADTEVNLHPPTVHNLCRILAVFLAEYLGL

Chain of QPCT (rhQPCT) (Q16769 29-361): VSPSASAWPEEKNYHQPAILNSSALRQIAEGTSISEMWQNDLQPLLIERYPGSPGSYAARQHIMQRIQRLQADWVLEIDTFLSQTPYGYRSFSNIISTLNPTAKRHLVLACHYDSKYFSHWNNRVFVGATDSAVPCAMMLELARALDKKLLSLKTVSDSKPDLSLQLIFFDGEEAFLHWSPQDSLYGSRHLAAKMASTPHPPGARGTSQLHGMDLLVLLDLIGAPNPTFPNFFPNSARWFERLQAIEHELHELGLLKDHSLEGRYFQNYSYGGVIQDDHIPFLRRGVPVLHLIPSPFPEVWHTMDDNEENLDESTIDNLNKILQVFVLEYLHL

Row | Compound | IC50 (QPCT (rhQPCT)) [nM] | IC50 (QPCTL [1]) [nM] | IC50 (QPCTL [2]) [nM]
1 | Cn1cnnc1C1CCN(c2c(C#N)cccc2-c2cncc3c2cnn3C)CC1 [Example 4, 3-{1-methyl-1H-pyrazolo[3,4-c]pyridin-4-yl}-2-[4-(4-methyl-4H-1,2,4-triazol-3-yl)piperidin-1-yl]benzonitrile] | 100 to 1000 | 1000 to 10000 | 100 to 1000
2 | Cn1cnnc1C1CCN(c2c(C#N)cccc2-c2ccc(OCCO)nc2)CC1 [Example 6, 3-[6-(2-hydroxyethoxy)pyridin-3-yl]-2-[4-(4-methyl-4H-1,2,4-triazol-3-yl)piperidin-1-yl]benzonitrile] | < 100 | 1000 to 10000 | < 100
3 | Cn1cnnc1C1CCN(c2c(C#N)cccc2-c2ccnnc2)CC1 [Example 11, 2-[4-(4-methyl-4H-1,2,4-triazol-3-yl)piperidin-1-yl]-3-(pyridazin-4-yl)benzonitrile] | < 100 | < 100 | < 100
4 | Cn1cnnc1C1CCN(c2c(C#N)cccc2-c2cncc3c2ccn3C)CC1 [Example 12, 3-{1-methyl-1H-pyrrolo[2,3-c]pyridin-4-yl}-2-[4-(4-methyl-4H-1,2,4-triazol-3-yl)piperidin-1-yl]benzonitrile] | < 100 | 1000 to 10000 | < 100
5 | Cn1cnnc1C1CCN(c2c(C#N)cccc2-c2ccc3ocnc3c2)CC1 [Example 15, 3-(1,3-benzoxazol-5-yl)-2-[4-(4-methyl-4H-1,2,4-triazol-3-yl)piperidin-1-yl]benzonitrile] | < 100 | 1000 to 10000 | 100 to 1000
6 | Cn1cc2c(-c3cccc(C#N)c3N3CCC(c4nncn4C)CC3)cncc2n1 [Example 16, 3-{2-methyl-2H-pyrazolo[3,4-c]pyridin-4-yl}-2-[4-(4-methyl-4H-1,2,4-triazol-3-yl)piperidin-1-yl]benzonitrile] | < 100 | 100 to 1000 | < 100
7 | Cn1cnnc1C1CCN(c2c(C#N)cccc2-c2ccc3nonc3c2)CC1 [Example 19, 3-(2,1,3-benzoxadiazol-5-yl)-2-[4-(4-methyl-4H-1,2,4-triazol-3-yl)piperidin-1-yl]benzonitrile] | < 100 | 1000 to 10000 | 100 to 1000
8 | Cn1cnnc1C1CCN(c2c(-c3ccc(F)nc3)ccc(-c3ccccc3)c2C#N)CC1 [Example 28, 4-(6-fluoropyridin-3-yl)-3-[4-(4-methyl-4H-1,2,4-triazol-3-yl)piperidin-1-yl]-[1,1′-biphenyl]-2-carbonitrile] | < 100 | < 100 | < 100

Second part, the compound after the results:

Row | IC50 (QPCT (rhQPCT)) [nM] | IC50 (QPCTL [1]) [nM] | IC50 (QPCTL [2]) [nM] | Compound
9 | < 100 | 1000 to 10000 | < 100 | CN(C)CCOc1ccncc1-c1cccc(C#N)c1N1CCC(c2nncn2C)CC1 [Example 8, 3-{4-[2-(dimethylamino)ethoxy]pyridin-3-yl}-2-[4-(4-methyl-4H-1,2,4-triazol-3-yl)piperidin-1-yl]benzonitrile]
10 | < 100 | 1000 to 10000 | < 100 | Cn1cnnc1C1CCN(c2c(C#N)cccc2-c2cnccc2OCCO)CC1 [Example 9, 3-[4-(2-hydroxyethoxy)pyridin-3-yl]-2-[4-(4-methyl-4H-1,2,4-triazol-3-yl)piperidin-1-yl]benzonitrile]
11 | < 100 | 100 to 1000 | < 100 | Cn1cnnc1C1CCN(c2c(C#N)cccc2-c2cnccc2Cl)CC1 [Example 10, 3-(4-chloropyridin-3-yl)-2-[4-(4-methyl-4H-1,2,4-triazol-3-yl)piperidin-1-yl]benzonitrile]
12 | < 100 | < 100 | < 100 | COc1ccc(-c2ccnnc2)c(N2CCC(c3nncn3C)CC2)c1C#N [Example 26, 6-methoxy-2-[4-(4-methyl-4H-1,2,4-triazol-3-yl)piperidin-1-yl]-3-(pyridazin-4-yl)benzonitrile]
13 | < 100 | 100 to 1000 | < 100 | COc1ccncc1-c1ccc(Cl)c(C#N)c1N1CCC(c2nncn2C)CC1 [Example 27, 6-chloro-3-(4-methoxypyridin-3-yl)-2-[4-(4-methyl-4H-1,2,4-triazol-3-yl)piperidin-1-yl]benzonitrile]
